Measured values published in publication PMC7595202, “Indole hydrazide compound ZJQ-24 inhibits angiogenesis and induces apoptosis cell death through abrogation of AKT/mTOR pathway in hepatocellular carcinoma” (Cell Death & Disease, 2020).

Biological target: mTOR (Homo sapiens, UniProt P42345)
Assay: in vitro kinase activity assay at ATP near Km; also anti-Raptor immunoprecipitated mTORC1 kinase assay (HepG2/HUH-7) with GST-S6K1 substrate
Assay type: biochemical

COc1ccc(C=NNC(=O)c2cc3cc(Cl)ccc3[nH]2)c(OC)c1 [ZJQ-24, 5-chloro-N’-(2,4-dimethoxybenzylidene)−1H-indole-2-carbohydrazide]
EC50: 40.6 µM
